Where “and” joins values, the source holds several entries; their conditions need not be identical. Equal entries are not always repeated. Where two headings read alike, the source gives them in different places.
Columns and labels:
[1] = test system: CT26 tumor; details: for ORR (%): 3 days after end of treatment; for Relapse (recurrence): tumor growth at least 5 fold in mice with CR or PR; for CR / PD / PR: number of mice
Description: Anti-Colorectal Cancer Activity in Animal Models. Animal study was approved and overseen by The Taipei Medical University Institutional Animal Care and Use Committee (TMU IACUC, NO: LAC-2020-0103, LAC-2019-0644). Six- to eight-week-old male Balb/c mice (National Laboratory Animal Center, Taiwan) were used for all animal experiments. CT26 cell line was purchased from ATCC. CT26 tumor cell lines were grown in RPMI-1640 supplemented with 10% (vol/vol) FBS at 37° C., 5% CO2. Tumors were established by s.c. injection of 1×10^6 CT26 cells with Matrigel (354248, Corning®) into the left flank of mice, and growth determined by measuring two perpendicular diameters. Tumors were allowed to grow for 8-12 days (tumor size about 110-250 mm^3) before randomization and treatment. Animals were euthanized when tumors reached more than 3000 mm^3 in volume. An anti-IgG antibody (BE0089, Lot #716719J3, Bio X Cell), anti-PD-1 antibody (BE0146, Lot #717918D1, Lot #735019J3, Lot #780120J3, Lot #73501901, Bio X Cell), anti-PD-L1 antibody (BE0101, Lot #720619F1, Bio X Cell) and anti-CTLA-4 antibody (BE0164, Lot #702418A2B, Bio X Cell) were administered i.p. at 2.5 mg/kg twice a week for three weeks. All antibodies were diluted to appropriate concentrations in 100 μL of sterile PBS (pH 7.4, Invitrogen Life Technologies). Axitinib (HY-10065, 30 mg/kg, po daily, MedChemExpress USA), Lenvatinib (HY-10981, 10 mg/kg, po daily, MedChemExpress USA), Olaparib (HY-10162, 50 mg/kg, po daily, MedChemExpress USA), Ibrutinib (HY-10997, 6 mg/kg, po daily, MedChemExpress USA), Cabozantinib (HY-13016, 30 mg/kg, po daily, MedChemExpress USA), Regorafenib (HY-1031, 30 mg/kg, po daily, MedChemExpress USA), RMC-4550 (HY-116009, 30 mg/kg, po daily, MedChemExpress USA), Sitravatinib (HY-16961, 20 mg/kg, po daily, MedChemExpress USA), Entinostat (HY-12163, 20 mg/kg, po q2d, MedChemExpress USA), Vorinostat (HY-10221, 150 mg/kg, po daily, MedChemExpress USA), Chidamide-k30 or Chidamide-HCl salt (50 mg/kg, po daily, produced from GNTbm, Taipei, Taiwan), Celecoxib (50 mg/kg, po daily, capsule/Celebrex®, Pfizer Pharmaceuticals LLC) were given for 16 days. Axitinib, Lenvatinib, Olaparib, Ibrutinib, Cabozantinib, Regorafenib, Entinostat, Vorinostat, RMC-4550, Sitravatinib and Celecoxib were dissolved in DMSO and diluted in PBS before administration. Chidamide-k30 and Chidamide-HCl salt were dissolved in water. Animals were euthanized when tumors reached more than 3000 mm^3 in volume. The anti-cancer activity was measured from the start of the treatment until the tumor volume reached 3,000 mm^3. Tumor volume was calculated as length×width^2×0.5. In this study, we defined Complete Response (CR, <0.5 time tumor growth in the tumor bearing mice at three days after the end of treatment); Partial Response (PR, tumor size ≥0.5 time tumor growth, but <1 times tumor growth in the tumor bearing mice at three days after the end of treatment); Stable Disease (SD, tumor size ≥1 time tumor growth, but <5 times tumor growth in the tumor bearing mice at three days after the end of treatment); Progressive Disease (PD, tumor size ≥5 times tumor growth in tumor bearing mice at three days after the end of treatment) for the evaluation of treatment efficacy. The recurrence was defined as when having tumor growth at least 5 fold in mice with CR or PR response after first tumor assessment.
Survival Rate in Animal Models. After tumor assessment the tumor volume of the mice was measured once every three or four days (twice/week). The tumor-bearing mice were regarded as dead when the tumor volume reached 3,000 mm^3. All treatment groups were recorded and analyzed.

[2] = test system: CT26 cells; assay: Tumor rechallenge with CT26 cells in mice with PR/CR response (immunity); format: in vivo, Balb/c mice; details: for Immunity (rechallenge): mice resistant to CT26 re-challenge
Description: Tumor Rechallenges in Animal Models. All mice with PR/CR response after treatment were rechallenged with CT26 cells on the contralateral side (please see FIG. 6(F)). The rechallenge with CT26 was performed on day 34±2, which was 7 days […] after first tumor assessment (day 27±2), with injection of 5×10^6 CT26 cells per mouse. After rechallenge with CT26 cells, tumors were allowed to grow for another 7 days (day 41±2) to determine the baseline as 1 fold. After further 10 days (day 51±2), the tumor growth was evaluated for the rechallenge. If two of the following criteria are met, the response will be considered as rechallenge-induced recurrence/relapse: first, the tumor size over 2 folds when compared to that of baseline on day 41±2; second, the tumor volume on day 51±2 was over 300 mm^3. Relapse happens when immunity is not sufficiently activated. If the tumor growth is inhibited, it means the immunity is activated.
We were interested in researching more powerful regimens to regulate the TME for boosting the immune response rate. First, we were to evaluate the Lenvatinib and Lenvatinib combined with anti-PD-1 Ab in CT26-bearing mice model. […] CT26 tumor-bearing mice were euthanized when tumor volume reached 3000 mm^3 after tumor implantation. […] Next, we were interested to evaluate immunity stimulated by different treatments in a rechallenge experiment as outlined in FIG. 6(F). The mice with CR or PR went into a wash-out stage of 7 days (until day 34±2) without any further treatment. Then rechallenge was performed with the same kind of cancer cells (CT26; 5×10^6) inoculated on the opposite flank for about another 7 days (day 41±2) and then the tumor volume would be determined as baseline (1 fold). The rechallenge tumor was allowed to grow for 10 days, and then assessed to evaluate the tumor growth (day 51±2). The immunity was defined as negative, when it met two conditions: the tumor volume was over 300 mm^3, or the tumor size was over 2 fold when compared to baseline. […] If the immune memory was not induced or not fully activated, resulting in the growth of tumors inoculated during the rechallenge (tumor recurrence), then the immunity would be defined as negative. […] The rechallenge experiment was used to re-confirm whether the regimens have stimulated the immune system's ability to activate immune memory directly or indirectly.

[3] = FIG. 9, initial tumor volume 251 mm^3

Row | SMILES | Survival Rate (%) ([1]; FIG. 9) | ORR (%) [1, 3] | Relapse (recurrence) ([1]; FIG. 9) [%] | CR ([1]; FIG. 9) | PD ([1]; FIG. 9) | PR ([1]; FIG. 9) | Immunity (rechallenge) ([2]; FIG. 9) [%] | tumor recurrence after the rechallenge ([2]; FIG. 6(G), mice that achieved CR/PR) [%] | Immunity (rechallenge) ([2]; FIG. 6, overall immune memory) [%] | Survival Rate (%) ([1]; FIG. 6) | ORR (%) ([1]; FIG. 6, initial tumor volume 190 mm^3) | Relapse (recurrence) ([1]; FIG. 6) [%] | body weight ([1]; mouse, in vivo) | CR ([1]; FIG. 6) | PD ([1]; FIG. 6) | PR ([1]; FIG. 6)
1 | CNC(=O)c1ccccc1Sc1ccc2c(/C=C/c3ccccn3)n[nH]c2c1 [Axitinib] | 38 | 37.5% and 38% | 0 | 3 | 4 | 0 | – | – | – | – | – | – | – | – | – | –
2 | COc1cc2nccc(Oc3ccc(NC(=O)C4(C(=O)Nc5ccc(F)cc5)CC4)cc3)c2cc1OC [Cabozantinib] | 14 | 43% | 67 | 3 | 2 | 0 | 100 | – | – | – | – | – | – | – | – | –
3 | COc1cc2nccc(Oc3ccc(NC(=O)NC4CC4)c(Cl)c3)c2cc1C(N)=O [Lenvatinib] | 0 | 12.5% and 13% | 100 | 0 | 2 | 1 | – | 33 | 67 | 10 | 30 | 67 | mildly reduced | 1 | 2 | 2
4 | CNC(=O)c1cc(Oc2ccc(NC(=O)Nc3ccc(Cl)c(C(F)(F)F)c3)c(F)c2)ccn1 [Regorafenib] | 13 | 25% | 50 | 2 | 2 | 0 | 50 | – | – | – | – | – | – | – | – | –

Reference: US20220251218A1, “PHARMACEUTICAL COMBINATION AND METHOD FOR OVERCOMING IMMUNE SUPPRESSION OR STIMULATING IMMUNE RESPONSE AGAINST CANCER” (GNT BIOTECH & MEDICALS CORPORATION, priority 2021, published 2022)
